{
  "source": "ChEMBL document CHEMBL5335824",
  "about": "“Research progress of LSD1-based dual-target agents for cancer therapy” (Bioorg Med Chem, 2024)",
  "key": {"[1]": {"molecular_target": "T1, Histone-lysine N-methyltransferase EHMT2 (Homo sapiens, UniProt Q96KQ7)", "T1 sequence (Q96KQ7 whole entry)": "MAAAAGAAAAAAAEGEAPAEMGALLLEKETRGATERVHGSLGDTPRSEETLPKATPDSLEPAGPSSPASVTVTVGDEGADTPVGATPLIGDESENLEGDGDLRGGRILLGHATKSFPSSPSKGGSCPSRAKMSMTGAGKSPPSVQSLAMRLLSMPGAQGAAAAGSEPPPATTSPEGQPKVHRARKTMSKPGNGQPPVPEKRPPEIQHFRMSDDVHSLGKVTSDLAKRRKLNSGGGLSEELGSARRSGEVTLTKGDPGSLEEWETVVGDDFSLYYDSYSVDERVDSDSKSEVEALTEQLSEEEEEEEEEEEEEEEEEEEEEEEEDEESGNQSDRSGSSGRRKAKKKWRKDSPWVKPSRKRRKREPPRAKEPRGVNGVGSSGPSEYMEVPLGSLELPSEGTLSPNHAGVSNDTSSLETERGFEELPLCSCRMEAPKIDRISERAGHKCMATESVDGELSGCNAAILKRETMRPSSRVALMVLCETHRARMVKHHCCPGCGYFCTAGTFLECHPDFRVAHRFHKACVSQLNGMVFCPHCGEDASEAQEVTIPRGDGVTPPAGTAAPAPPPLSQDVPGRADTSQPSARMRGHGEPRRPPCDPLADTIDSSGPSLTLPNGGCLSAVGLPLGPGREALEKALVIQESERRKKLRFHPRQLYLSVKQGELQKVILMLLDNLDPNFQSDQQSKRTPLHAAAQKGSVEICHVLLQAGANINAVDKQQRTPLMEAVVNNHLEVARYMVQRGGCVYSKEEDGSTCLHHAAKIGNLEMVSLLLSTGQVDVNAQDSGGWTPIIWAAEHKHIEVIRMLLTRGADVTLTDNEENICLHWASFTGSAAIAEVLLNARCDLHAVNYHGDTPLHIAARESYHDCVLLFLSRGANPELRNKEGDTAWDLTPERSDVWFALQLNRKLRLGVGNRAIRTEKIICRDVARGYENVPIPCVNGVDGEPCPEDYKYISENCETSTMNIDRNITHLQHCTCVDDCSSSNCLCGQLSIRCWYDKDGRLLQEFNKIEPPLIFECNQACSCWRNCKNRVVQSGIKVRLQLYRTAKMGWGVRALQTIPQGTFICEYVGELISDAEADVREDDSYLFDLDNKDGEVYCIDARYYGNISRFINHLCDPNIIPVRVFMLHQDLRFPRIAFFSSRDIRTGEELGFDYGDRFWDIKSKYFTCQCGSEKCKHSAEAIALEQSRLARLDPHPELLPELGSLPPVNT", "test": "Inhibition of human G9a expressed in HEK293 cells", "assay_type": "cell-based"}, "[2]": {"test_system": "THP-1", "test": "Antiproliferative activity against human THP-1 cells incubated for 24 hrs by trypan blue reagent based analysis", "assay_type": "functional, cell-based", "conditions": "THP-1, 24 h"}, "[3]": {"test_system": "MOLM-13", "test": "Antiproliferative activity against human MOLM-13 assessed as reduction in cell growth incubated for 48 hrs by MTT assay", "assay_type": "functional, cell-based", "conditions": "MOLM-13, 48 h"}, "[4]": {"test_system": "K562", "test": "Antiproliferative activity against human K562 assessed as reduction in cell growth incubated for 48 hrs by MTT assay", "assay_type": "functional, cell-based", "conditions": "K562, 48 h"}, "[5]": {"test_system": "Jurkat", "test": "Antiproliferative activity against human Jurkat cells assessed as reduction in cell viability incubated for 48 hrs by cell titer-glo assay", "assay_type": "functional, cell-based"}, "[6]": {"test_system": "MCF7", "test": "Antiproliferative activity against human MCF7 cells assessed as reduction in cell viability by MTT assay", "assay_type": "functional, cell-based"}, "[7]": {"test_system": "PC-3", "test": "Growth inhibition of human PC-3 cells assessed as reduction in cell viability by SRB assay", "assay_type": "functional", "conditions": "time 48 hrs"}, "[8]": {"test_system": "DU-145", "test": "Antiproliferative activity against human DU-145 cells assessed as cell growth inhibition", "assay_type": "functional, cell-based"}, "[9]": {"test": "Inhibition of DCN1 (unknown origin) by TR-FRET analysis", "parameters": "species or system Homo sapiens"}, "[10]": {"test_system": "MGC-803", "test": "cells", "conditions": "Homo sapiens, MGC-803, 72 h"}, "[11]": {"test_system": "SGC-7901", "test": "cells", "conditions": "Homo sapiens, SGC-7901, 72 h"}, "[12]": {"test_system": "BGC-823", "test": "cells", "conditions": "Homo sapiens, BGC-823, 72 h"}, "[13]": {"test_system": "BXPC-3", "test": "Antiproliferative activity against human BXPC-3 cells assessed as reduction in cell viability measured for 72 hrs by CCK-8 assay", "assay_type": "functional, cell-based", "conditions": "BXPC-3, 72 h"}, "[14]": {"test_system": "MIA PaCa-2", "test": "Antiproliferative activity against human MIA PaCa-2 cells assessed as reduction in cell viability incubated for 24 hrs by CCK-8 assay", "assay_type": "functional, cell-based", "conditions": "MIA PaCa-2, 24 h"}, "[15]": {"molecular_target": "Spermine oxidase (Homo sapiens, UniProt Q9NWM0)", "sequence (Q9NWM0 whole entry)": "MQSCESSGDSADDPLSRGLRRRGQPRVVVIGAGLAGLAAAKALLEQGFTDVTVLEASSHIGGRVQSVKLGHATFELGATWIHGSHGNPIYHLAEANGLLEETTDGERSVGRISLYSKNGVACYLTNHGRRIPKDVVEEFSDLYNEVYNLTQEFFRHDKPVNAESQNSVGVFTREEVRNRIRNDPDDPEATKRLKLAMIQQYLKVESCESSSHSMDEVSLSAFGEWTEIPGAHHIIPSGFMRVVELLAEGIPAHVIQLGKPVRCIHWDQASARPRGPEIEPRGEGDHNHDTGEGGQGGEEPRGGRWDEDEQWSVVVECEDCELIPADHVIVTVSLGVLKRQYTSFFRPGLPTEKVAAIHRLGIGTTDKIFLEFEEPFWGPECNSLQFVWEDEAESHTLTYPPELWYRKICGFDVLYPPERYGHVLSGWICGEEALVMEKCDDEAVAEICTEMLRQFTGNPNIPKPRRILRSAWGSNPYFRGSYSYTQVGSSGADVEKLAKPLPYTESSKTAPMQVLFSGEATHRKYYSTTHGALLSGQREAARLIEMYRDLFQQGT", "test": "Inhibition of SMOX (unknown origin) using spermine as substrate preincubated for 1 hr followed by substrate addition and measured after 20 mins by luminometer analysis"}, "[16]": {"molecular_target": "Lysine-specific histone demethylase 1A (Homo sapiens) (UniProt O60341)", "test": "Inhibition of LSD1 (unknown origin) at 10 uM relative to control"}, "[17]": {"test_system": "NCI-H1975", "test": "Antiproliferative activity against human NCI-H1975 cells assessed as reduction in cell viability incubated for 48 hrs by MTT assay", "conditions": "NCI-H1975, 48 h"}},
  "data": [
    {"compound": "CN(C)CCCNc1nc(NC2CCN(Cc3ccccc3)CC2)c2ccccc2n1", "values": [
      {"measurement": "IC50", "setting": "[1]", "value": 41.3, "unit": "µM"}
    ]},
    {"compound": "O=C(NO)c1ccc(CN2CCC(CN[C@@H]3C[C@H]3c3ccccc3)CC2)cc1", "values": [
      {"measurement": "IC50", "setting": "[2]", "value": 16.3, "unit": "µM"},
      {"measurement": "IC50", "setting": "[3]", "value": 1.3, "unit": "µM"},
      {"measurement": "IC50", "setting": "[4]", "value": 16.6, "unit": "µM"},
      {"measurement": "IC50", "setting": "[5]", "value": 15.5, "unit": "µM"}
    ]},
    {"compound": "CC/C(=C(/c1ccc(OCCN(C)C)cc1)c1ccc(OC(=O)N(C)CCN(C)C2CC2c2ccccc2)cc1)c1ccccc1", "note": "(stereo not drawn)", "values": [
      {"measurement": "IC50", "setting": "[6]", "value": 28.7, "unit": "µM"}
    ]},
    {"compound": "COc1cc2nc(NCCCN(C)C)nc(NC3CCN(Cc4ccccc4)CC3)c2cc1OC", "values": [
      {"measurement": "IC50", "setting": "[1]", "value": 0.778, "unit": "µM"}
    ]},
    {"compound": "C#CCN(C)Cc1cccc(NC(=O)CCCCCCC(=O)NO)c1", "values": [
      {"measurement": "GI50", "setting": "[7]", "value": 0.33, "unit": "µM"},
      {"measurement": "IC50", "setting": "[8]", "value": 0.42, "unit": "µM"}
    ]},
    {"compound": "Cc1cc(Sc2nnnn2CCN(C)C)n2nc(SCc3ccc(Cl)cc3)nc2n1", "values": [
      {"measurement": "IC50", "setting": "[9]", "value": 0.011, "unit": "µM"},
      {"measurement": "IC50", "setting": "[10]", "value": 0.53, "unit": "µM"},
      {"measurement": "IC50", "setting": "[11]", "value": 0.85, "unit": "µM"},
      {"measurement": "IC50", "setting": "[12]", "value": 1, "unit": "µM"}
    ]},
    {"compound": "Nc1n[nH]c(NCc2c(Cl)cccc2Oc2ccc(-c3ccccc3)cc2)n1", "values": [
      {"measurement": "IC50", "setting": "[13]", "value": "> 100", "unit": "µM"},
      {"measurement": "IC50", "setting": "[14]", "value": 61.5, "unit": "µM"},
      {"measurement": "IC50", "setting": "[15]", "value": 25.7, "unit": "µM"},
      {"measurement": "inhibition", "setting": "[16]", "value": 52.1, "unit": "%"}
    ]},
    {"compound": "C=CC(=O)Nc1cc(Nc2nccc(-c3cn(C)c4ccccc34)n2)c(OC)cc1N(C)CCN(C)C", "note": "[OSIMERTINIB]", "values": [
      {"measurement": "IC50", "setting": "[17]", "value": "[…]"}
    ]}
  ]
}
